Source: patent publication US20220304305A1, “HIGHLY EFFECTIVE FORMULATIONS ON THE BASIS OF 2-[(2,4-DICHLORPHENYL)-METHYL]-4,4'-DIMETHYL-3-ISOXAZOLIDINONES AND PREEMERGENCE HERBICIDES” (Bayer Aktiengesellschaft, priority 2019, published 2022)

Columns and labels:
[1] = list of substances and abbreviations used; cited from earlier work
[2] = test system: gramineous weeds in winter cereals; test: Greenhouse trials, activity against gramineous weeds (summary in words); assay type: in vivo; conditions: with both adjuvants from as low as 250 g/ha
Experimental: In the standard implementation of the test, seeds of various broad-leaved weed and weed grass biotypes (origins) were sown in an 8-13 cm diameter pot filled with natural soil of a standard field soil (loamy silt; non-sterile) and covered with a covering soil layer of about 1 cm. The pots were then cultivated in a greenhouse (light for 12-16 h, temperature 20-22° C. by day, 15-18° C. by night) until the time of application. The pots were treated on a laboratory track sprayer with spray liquors comprising the mixtures/compositions of the invention, mixtures of the prior art or the components applied individually. Application of the active ingredients or active ingredient combinations formulated as WG, WP, EC or otherwise was effected at the appropriate growth stages of the plants. The amount of water used for spray application was 100-600 l/ha. After the treatment, the plants were returned to the greenhouses.
About 3 weeks after the application, the soil action or/and foliar action was assessed visually according to a scale of 0-100% in comparison to an untreated comparative group: 0%=no noticeable effect compared to the untreated comparative group; 100%=full effect compared to the untreated comparative group. […]

CC(C)N(C(=O)COc1nnc(C(F)(F)F)s1)c1ccc(F)cc1 [flufenacet, 4′-fluoro-N-isopropyl-2-(5-trifluoromethyl-1,3,4-thiadiazol-2-yloxy)acetanilide]
log P [1]: (Bayer AG), abbreviated hereinafter to FFA, log P = 3.2

CC1(C)CON(Cc2ccc(Cl)cc2Cl)C1=O [DCPMI, 2-[(2,4-dichlorophenyl)methyl]-4,4′-dimethyl-3-isoxazolidinone]
improvement [2]: significant improvement
log P [1]: abbreviated hereinafter to DCPMI), log P = 3.39
